Test results as given in PMC6631887, “In vitro and in vivo characterization of anti-malarial acylphenoxazine derivatives prepared from basic blue 3” (Malaria Journal, 2019).
“And” between values parts separate entries of the source, which are not always exact repeats. Equal values may be shown once. Read-outs that look alike come from different tables or passages of the source.

Legend:
[1] = test system: Plasmodium falciparum field isolate MRA-1239 (ART-sensitive); assay: In vitro anti-malarial efficacy (growth inhibition), XN-30 analyzer, MRA-1239 isolate; format: cell-based; conditions: read-out: IC50 MRA-1239
[2] = test system: Plasmodium falciparum field isolate MRA-1240 (ART-resistant); assay: In vitro anti-malarial efficacy (growth inhibition), XN-30 analyzer, MRA-1240 isolate; format: cell-based; conditions: read-out: IC50 MRA-1240
[3] = test system: Plasmodium falciparum 3D7 (CQ- and PYR-sensitive); assay: In vitro anti-malarial efficacy (growth inhibition), XN-30 analyzer, 3D7 strain; format: cell-based; conditions: read-out: IC50 3D7
[4] = test system: Plasmodium falciparum W2 (CQ- and PYR-resistant); assay: In vitro anti-malarial efficacy (growth inhibition), XN-30 analyzer, W2 strain; format: cell-based; conditions: read-out: IC50 W2
[5] = Cytotoxic assay (Cell Counting Kit-8), HEK293T; format: cell-based; conditions: human, HEK293T cells; 48 h culture, CCK-8; mean ± SEM, three experiments
Procedure: (§1) HepG2 (JCRB1054) and HEK293T cell lines were obtained from the Japanese Collection of Research Bioresources (JCRB, Osaka, Japan) and Prof. Yoshiharu Matsuura (Osaka University, Osaka, Japan), respectively. The cells were cultured in Dulbecco’s modified Eagle’s medium (DMEM (1.0 g/L glucose) with L-glutamine and sodium pyruvate; Nacalai Tesque, Kyoto, Japan) supplemented with 10% (v/v) fetal bovine serum (FBS; Gibco-BRL, Grand Island, NY, USA) in a humidified incubator with 5% CO2 at 37 °C. For the cytotoxic assay, the cells (5 × 10^3/well) were seeded in a 96-well plate. […] Cell viability was measured using a Cell Counting Kit-8 (Dojindo) according to the manufacturer’s instructions. Briefly, 10 µL CCK-8 reagent was added to each well containing culture medium and incubated for 2 h under standard culture conditions. The absorbance of the sample was measured at 450 nm using a PowerWave HT microplate spectrophotometer (BioTek Instruments, Winooski, VT, USA). The cell viability was expressed as a percentage of the absorbance of the untreated control cells after subtracting the appropriate background intensity. The CC50 (mean ± SEM) was calculated as described in IC50. The SI, which is the ratio between the cytotoxicity and anti-malarial activity, was calculated according to the following equation. SI=mean CC50/mean IC50.

[6] = Cytotoxic assay (Cell Counting Kit-8), HepG2; format: cell-based; conditions: human, HepG2 cells; 48 h culture, CCK-8; mean ± SEM, three experiments
Procedure: as §1

Plasmodium berghei NK65 = assay: In vivo anti-malarial activity, rodent malaria model, oral administration; set-up: species or system Plasmodium berghei (in ICR mice); conditions: for MSD (mean survival day) / % suppression on day 4: mice; for MSD (mean survival day): observed to day 30; for % suppression on day 4: repeated for 3 consecutive days, parasitaemia vs control
Procedure: The in vivo anti-malarial efficacy of ITT-001 to 006 was evaluated using the rodent malaria parasite P. berghei NK65 as described by Fidock et al., with some modifications. The parasite was maintained by syringe passage every week in female ICR mice (4–8-week-old; body weight, 25–27 g, Sankyo Lab Service, Tokyo, Japan). On day 0, a 200 µL aliquot of saline containing 2 × 10^7 iRBCs prepared from the pre-infected mice was injected intravenously into the mice. After 4 h, basic blue 3 and ITT-001 to 006 dissolved or suspended in 5% (w/v) methyl cellulose 400 solution (FUJIFILM Wako Pure Chemical, Osaka, Japan) were orally administered (100 mg/kg body weight of basic blue 3 and ITT-001 to 006 and 50 mg/kg body weight of ITT-004) to the mice (four and five groups for basic blue 3 and ITT-001 to 006, respectively). The control group (five mice/group) was treated with approximately 100 µL of the vehicle. This treatment was repeated for 3 consecutive days. On day 4, peripheral blood samples were obtained from the tail veins of the mice and thin blood smears stained with Diff-Quik stain kit (Sysmex) were observed under a Leica DM6000B microscope (Leica Microsystems, Wetzlar, Germany). Parasitaemia was determined by counting over 10 fields of view. The suppression rate (%) was calculated as the difference in parasitaemia between the test and control groups. The mean survival day (MSD) was calculated from the number of the surviving mice on day 30. The surviving mice were cured on day 30. Kaplan–Meier curves were generated to graphically display the efficacy using GraphPad Prism version 5.0.

[7] = Measurement of fluorescence spectrum (self-fluorescence); format: physicochemical; conditions: 10 µM in saline containing 1% DMSO, excitation 592 nm, emission 630-730 nm
Procedure: Fluorescence spectrum of basic blue 3 and ITT-001 to 006 (10 µM) was obtained in saline containing 1% DMSO at room temperature. The compounds were excited at 592 nm (bandpass width, 5 nm) and their emission spectra, 630 nm to 730 nm, were measured with a RF-5300PC Spectro fluorophotometer (Shimadzu).

[8] = test system: Plasmodium falciparum 3D7 (ring-form-synchronized); assay: Characterization of anti-malarial activity in vitro, 24 h treatment, XN-30 analyzer and light microscopy; format: cell-based; conditions: 3D7, 24 h treatment; for concentration at which parasites were arrested or killed with the ring-form: XN-30 analyzer (Fig. 2i); for concentration at which trophozoites appeared: XN-30 analyzer (Fig. 2ii)
Procedure: The ring-form-synchronized parasite (3D7 strain) was treated with the indicated concentrations of basic blue 3 and ITT-001 to 006 for 24 h for flow cytometric and morphological analyses using an automated haematology analyzer, XN-30, and light microscope, respectively.
For the flow cytometric analysis, the XN30 analyzer was equipped with a prototype algorithm for cultured P. falciparum [prototype; software version: 01-03, (build 16)] and specific reagents were used ([…] DCL, SULFOLYSER, Lysercell M, and Fluorocell M) (Sysmex, Kobe, Japan). Approximately 100 µL of the culture suspension diluted with 100 µL phosphate-buffered saline was added into a BD Microtainer MAP Microtube for Automated Process K2 EDTA 1.0 mg tube (Becton–Dickinson and Co., Franklin Lakes, NJ, USA) and loaded onto the XN-30 analyzer with an auto-sampler as described in the instrument’s manual (Sysmex). […] Horizontal and vertical axes represent the intensities of side fluorescent light (SFL, which corresponds to DNA content) and forward scattered light (FSC, indicating iRBC size), respectively. Colours indicate the following based on the default setting: red, ring-form; orange, trophozoite; purple, schizont; and blue, polychromatic RBC. Once parasites replicate DNA, dots are plotted to the right side on the M scattergram according to the increase in DNA content. The parasitaemias (total, MI-RBC%; ring-form, RNG-RBC%; trophozoite, TRPZ-RBC%; and schizont, SCHZ-RBC%) were automatically reported.
A standard thin blood smear was fixed with 100% methanol for 10 min and stained with 10% Giemsa working solution, pH 7.2 (Merck KGaA, Darmstadt, Germany) for 13 min.

[9] = 48 h treatment, ring-form-synchronized, XN-30 analyzer, mean ± SEM, three experiments
[10] = Plasmodium falciparum, 3D7, 48 h, 48 h treatment, ring-form-synchronized, XN-30 analyzer, mean ± SEM, three experiments
[11] = Plasmodium falciparum, W2, 48 h, 48 h treatment, ring-form-synchronized, XN-30 analyzer, mean ± SEM, three experiments
[12] = oral 100 mg/kg, surviving mice considered cured

Row | Structure (SMILES) | IC50 [1, 9] [nM] | IC50 [2, 9] [nM] | IC50 [3, 10] [nM] | IC50 [4, 11] [nM] | CC50 at 48 h [5] [nM] | CC50 at 48 h [6] [nM] | MSD (mean survival day) (Plasmodium berghei NK65; oral 100 mg/kg) [days] | % suppression on day 4 (Plasmodium berghei NK65; oral 100 mg/kg) [%] | # of survived mice on day 30 (Plasmodium berghei NK65; [12]) | maximum fluorescence intensity [7] | further results
1 | C[C@@H]1CC[C@H]2[C@@H](C)C(=O)O[C@@H]3O[C@@]4(C)CC[C@@H]1[C@]32OO4 [ART, artemisinin, reference compound] | 5.5 ± 0.018 | 13.2 ± 1.4 | – | – | – | – | – | – | – | – | –
2 | CCN(CC)CCCC(C)Nc1ccnc2cc(Cl)ccc12 (stereo not shown) [CQ, chloroquine, reference compound] | – | – | – | – | – | – | – | – | – | – | IC50 ([3]; Plasmodium falciparum, 3D7, 48 h): 8.6 ± 0.21 nM; IC50 ([4]; Plasmodium falciparum, W2, 48 h): 225 ± 23.2 nM; IC50 ([1]; 48 h): 38.6 ± 5.2 nM; IC50 ([2]; 48 h): 58 ± 2.6 nM
3 | CCN(CC)c1ccc2c(c1)Oc1cc(N(CC)CC)ccc1N2C(C)=O [ITT-001, 1-(3,7-Bis(diethylamino)-10H-phenoxazin-10-yl)ethanone] | 34.6 ± 9.1 | 39 ± 11.2 | 11.2 ± 1.3 | 11.1 ± 1.8 | 320 ± 42 | 4000 ± 850 | 20.4 | > 99 | 3/5 | – | –
4 | CCN(CC)c1ccc2c(c1)Oc1cc(N(CC)CC)ccc1N2C(=O)C(C)(C)C [ITT-002, 1-(3,7-Bis(diethylamino)-10H-phenoxazin-10-yl)-2,2-dimethylpropan-1-one] | 20.7 ± 1.6 | 24.4 ± 3.7 | 10.7 ± 1.5 | 10.4 ± 2.8 | 200 ± 21 | > 50000 | 19.2 | > 99 | 2/5 | – | –
5 | CCN(CC)c1ccc2c(c1)Oc1cc(N(CC)CC)ccc1N2C(=O)C1CC1 [ITT-003] | 24.9 ± 3.1 | 31.3 ± 9.8 | 9.8 ± 1 | 9.6 ± 2.1 | 9200 ± 3800 | > 50000 | 21.0 | > 99 | 2/5 | – | –
6 | CCN(CC)c1ccc2c(c1)Oc1cc(N(CC)CC)ccc1N2C(=O)c1ccccc1 [ITT-004, (3,7-Bis(diethylamino)-10H-phenoxazin-10-yl)(phenyl)methanone] | 26.4 ± 2.9 | 30.5 ± 2 | 11.3 ± 2.4 | 12.3 ± 2.7 | 10500 ± 3400 | > 50000 | 29.4 | > 99 | – | less than 3 a.u. | MSD (mean survival day) (Plasmodium berghei NK65; oral 50 mg/kg): 11.8 days; % suppression on day 4 (Plasmodium berghei NK65; oral 50 mg/kg): > 99%; # of survived mice on day 30 (Plasmodium berghei NK65; oral 50 mg/kg): 0/5; # of survived mice on day 30 (Plasmodium berghei NK65; oral 100 mg/kg, surviving mice considered cured, 100 mg/kg): four of five and 4 out of 5 and 4/5
7 | CCN(CC)CC(=O)N1c2ccc(N(CC)CC)cc2Oc2cc(N(CC)CC)ccc21.Cl [ITT-005, 1-(3,7-Bis(diethylamino)-10H-phenoxazin-10-yl)-2-(diethylamino)ethanone hydrochloride] | 130 ± 9.3 | 184 ± 30.1 | – | – | 730 ± 93 | 4600 ± 260 | 14.0 | > 99 | 1/5 | – | concentration at which parasites were arrested or killed with the ring-form [8]: 5000 nM; concentration at which trophozoites appeared [8]: 150 nM
8 | CCN(CC)c1ccc2c(c1)Oc1cc(N(CC)CC)ccc1N2C(=O)c1ccc(F)cc1 [ITT-006, (3,7-Bis(diethylamino)-10H-phenoxazin-10-yl)(4-fluorophenyl)methanone] | 27.5 ± 3.4 | 29.4 ± 5.8 | 10.6 ± 1.6 | 16 ± 4.5 | 13600 ± 3000 | > 50000 | 13.0 | 91.5 | 0/5 | less than 3 a.u. | –
9 | CCN(CC)c1ccc2nc3ccc(=[N+](CC)CC)cc-3oc2c1 [basic blue 3] | 5.2 ± 1.1 | 5.9 ± 0.68 | ~4 | ~4 | 21 ± 4.2 | 1000 ± 64 | 20.3 | > 99 | 1/4 | 775 a.u. | IC50 [3, 9]: 3.2 ± 0.19 nM; IC50 [4, 9]: 4.8 ± 0.53 nM; concentration at which parasites were arrested or killed with the ring-form [8]: 15 nM; concentration at which trophozoites appeared [8]: 0.5 nM
